Experimental data: paper PMC11798738, “Targeting ASK1 by CS17919 alleviates kidney‐ and liver‐related diseases in murine models” (Animal Models and Experimental Medicine, 2024)
Entries after “also recorded” stand apart in the source; their conditions may differ. Read-outs that look alike come from different tables or passages of the source. Marks after values point to notes of the source that are not given here.

Assays:
UUO model = tested on: UUO model; set-up: method as in PMID 37310976; details: cited from earlier work
DKD = tested on: DKD; set-up: method as in PMID 30526503, PMID 26180085, PMID 30024858; details: cited from earlier work
NASH [1] = tested on: NASH; set-up: method as in PMID 28218919, PMID 31996485; details: cited from earlier work
[2] = Metabolic stability in liver microsomes; type: in vitro ADME; details: Rat
CYP 1A2 = CYP 1A2 (Homo sapiens, UniProt P05177)
Chain of CYP 1A2 (P05177 whole entry): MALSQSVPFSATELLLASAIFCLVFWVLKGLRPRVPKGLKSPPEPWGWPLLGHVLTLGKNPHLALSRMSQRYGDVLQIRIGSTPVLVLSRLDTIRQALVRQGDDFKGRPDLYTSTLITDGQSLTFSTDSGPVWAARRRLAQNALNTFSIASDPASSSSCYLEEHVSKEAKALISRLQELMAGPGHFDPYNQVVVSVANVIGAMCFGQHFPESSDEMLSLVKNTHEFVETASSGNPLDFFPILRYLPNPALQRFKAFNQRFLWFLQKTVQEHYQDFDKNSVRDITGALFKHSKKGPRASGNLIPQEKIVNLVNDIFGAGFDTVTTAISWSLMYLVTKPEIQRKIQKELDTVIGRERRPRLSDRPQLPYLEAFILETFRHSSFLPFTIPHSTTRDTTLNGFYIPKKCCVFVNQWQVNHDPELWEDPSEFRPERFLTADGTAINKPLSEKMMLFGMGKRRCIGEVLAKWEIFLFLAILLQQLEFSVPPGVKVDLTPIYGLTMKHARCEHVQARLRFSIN

CYP 2C19 = CYP 2C19 (Homo sapiens, UniProt P33261); assay: CYP inhibition in vitro; type: in vitro ADME
Chain of CYP 2C19 (P33261 whole entry): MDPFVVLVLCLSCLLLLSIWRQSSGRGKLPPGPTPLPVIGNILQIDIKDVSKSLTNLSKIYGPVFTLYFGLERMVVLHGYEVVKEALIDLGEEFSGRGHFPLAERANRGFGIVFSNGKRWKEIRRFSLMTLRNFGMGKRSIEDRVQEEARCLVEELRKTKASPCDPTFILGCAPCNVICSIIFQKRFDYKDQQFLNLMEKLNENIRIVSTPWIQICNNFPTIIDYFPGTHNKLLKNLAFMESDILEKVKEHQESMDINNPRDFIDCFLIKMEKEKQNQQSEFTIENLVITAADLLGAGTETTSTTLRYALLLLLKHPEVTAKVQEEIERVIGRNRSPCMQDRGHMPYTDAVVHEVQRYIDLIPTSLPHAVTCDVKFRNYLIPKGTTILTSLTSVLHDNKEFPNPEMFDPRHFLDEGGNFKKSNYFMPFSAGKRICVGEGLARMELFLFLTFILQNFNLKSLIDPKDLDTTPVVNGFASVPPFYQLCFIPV

CYP3A4 [3] = biological target: T1, CYP3A4 (Homo sapiens, UniProt P08684); assay: CYP inhibition in vitro; details: read-out: CYP3A4 (Midazolam) inhibition IC50; substrate Midazolam
T1 sequence (P08684 whole entry): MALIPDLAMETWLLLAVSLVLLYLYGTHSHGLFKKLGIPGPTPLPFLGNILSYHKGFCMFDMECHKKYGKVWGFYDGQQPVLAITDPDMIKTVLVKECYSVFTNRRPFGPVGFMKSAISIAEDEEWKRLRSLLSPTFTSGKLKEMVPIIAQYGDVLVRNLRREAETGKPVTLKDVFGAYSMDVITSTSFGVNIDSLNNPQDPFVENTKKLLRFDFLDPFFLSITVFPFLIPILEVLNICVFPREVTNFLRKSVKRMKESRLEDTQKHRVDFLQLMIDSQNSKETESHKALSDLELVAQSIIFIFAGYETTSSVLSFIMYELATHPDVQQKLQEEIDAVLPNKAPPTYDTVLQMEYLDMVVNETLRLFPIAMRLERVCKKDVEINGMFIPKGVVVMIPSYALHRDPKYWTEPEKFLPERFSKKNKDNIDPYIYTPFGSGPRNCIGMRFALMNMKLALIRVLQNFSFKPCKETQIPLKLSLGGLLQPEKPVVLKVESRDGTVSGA

CYP3A4 [4] = biological target: T1, CYP3A4
CYP 2D6 = CYP 2D6 (Homo sapiens, UniProt P10635); assay: CYP inhibition in vitro; type: in vitro ADME
Chain of CYP 2D6 (P10635 whole entry): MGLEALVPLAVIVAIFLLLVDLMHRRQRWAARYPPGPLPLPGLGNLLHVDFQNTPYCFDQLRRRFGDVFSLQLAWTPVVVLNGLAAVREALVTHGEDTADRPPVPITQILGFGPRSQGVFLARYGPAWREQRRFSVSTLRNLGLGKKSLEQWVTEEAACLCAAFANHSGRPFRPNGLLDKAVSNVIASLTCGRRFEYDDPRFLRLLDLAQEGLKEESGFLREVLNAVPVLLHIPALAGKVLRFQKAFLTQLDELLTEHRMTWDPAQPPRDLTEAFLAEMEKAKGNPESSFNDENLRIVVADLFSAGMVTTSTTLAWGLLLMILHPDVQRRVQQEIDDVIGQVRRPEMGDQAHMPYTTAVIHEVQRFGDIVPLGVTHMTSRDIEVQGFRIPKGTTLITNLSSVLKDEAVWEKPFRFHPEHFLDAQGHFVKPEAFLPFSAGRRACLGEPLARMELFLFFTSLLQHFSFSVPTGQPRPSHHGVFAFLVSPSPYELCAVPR

NASH mouse model [5] = assay: CCL4- and HFD-induced NASH mouse model; type: in vivo, C57BL/6J mice; details: CS17919 20 mg/kg
Protocol: 41 C57BL/6J mice, male, 6–8 weeks of age, were purchased from Chengdu Dossy Experimental Animal Co. (Chengdu, China), 9 of which were assigned in the control group and fed a chow diet. The other 32 mice were fed a HFD (D12429, Research diet, USA). After 8 weeks of feeding, these mice with HFD were subcutaneously injected with CCL4 (0.1 mL/kg) twice a week. These mice were then randomly subdivided into 4 groups according to serum ALT and AST at week 12: Model (n = 8), CS17919 (n = 8), CS27109 (n = 8), and Combination (n = 8). Both the control and model groups were given the solvent mentioned above, administered orally twice a day, while CS17919 was administered twice a day by gavage at a dose of 20 mg/kg and CS27109 was administered twice a day by gavage at a dose of 10 mg/kg for 4 weeks. The body weight of each mouse was measured every 3 days during the drug intervention. All animals were fasted overnight after the last drug administration and blood was collected to isolate serum for biochemical tests including AST, ALT, TG, TC, HDL‐c, and LDL‐c. The liver of each mouse was removed, the right lobe of which was fixed in 10% formalin solution for pathological study.
H&E staining was applied to determine scores for liver steatosis, ballooning and inflammation in the NASH model. Thin 4 μm paraffin sections of each sample were used to assess liver histology, following a standard protocol. Paraffin sections were deparaffinized and placed in Hematoxylin staining solution for 3–8 min before using tap water to elute excess Hematoxylin. Sections were stained in Eosin stain for about 1–3 min and rinsed with tap water. Finally, the slices were dehydrated and sealed. Score ranges were 0–3 for liver steatosis, 0–2 for ballooning and 0–12 for inflammation (which included scores of 0–3 for portal inflammation, 0–3 for lobular inflammation, 0–3 for piecemeal necrosis, and 0–3 for bridging necrosis).
Sirius Red staining was applied to determine liver fibrosis in the NASH model. Thin 4 μm paraffin sections of each sample were used in this study followed the standard procedure. Sections were first stained with Hematoxylin for 5–10 min, then washed and stained with Sirius Red stain about 15–30 min. Finally, the sections were rinsed and sealed. Image‐Pro Plus 6.0 was used for analyzing the area of liver fibrosis and the percentage of the fibrosis area in each section was calculated.

[6] = Metabolic stability in liver microsomes; type: in vitro ADME; details: Mouse
[7] = Metabolic stability in liver microsomes; type: in vitro ADME; details: Human
NASH mouse model [8] = assay: CCL4- and HFD-induced NASH mouse model; type: in vivo, C57BL/6J mice; details: data not shown; model group 5/9
CYP 2B6 = CYP 2B6 (Homo sapiens, UniProt P20813); assay: CYP inhibition in vitro; type: in vitro ADME
Chain of CYP 2B6 (P20813 whole entry): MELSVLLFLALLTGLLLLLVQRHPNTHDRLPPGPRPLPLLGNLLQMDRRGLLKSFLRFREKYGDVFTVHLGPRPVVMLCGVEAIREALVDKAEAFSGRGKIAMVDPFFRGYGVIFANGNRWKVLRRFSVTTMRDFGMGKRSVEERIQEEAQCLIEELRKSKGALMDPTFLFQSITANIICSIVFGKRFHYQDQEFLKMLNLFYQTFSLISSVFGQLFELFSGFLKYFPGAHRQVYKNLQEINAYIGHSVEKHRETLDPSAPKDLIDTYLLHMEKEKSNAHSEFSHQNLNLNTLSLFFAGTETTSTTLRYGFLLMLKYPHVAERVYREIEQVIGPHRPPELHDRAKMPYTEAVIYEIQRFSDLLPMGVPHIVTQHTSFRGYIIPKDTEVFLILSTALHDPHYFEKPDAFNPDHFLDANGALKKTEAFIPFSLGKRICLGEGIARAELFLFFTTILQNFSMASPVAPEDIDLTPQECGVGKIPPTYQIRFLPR

CYP 2C8 = CYP 2C8 (Homo sapiens, UniProt P10632); assay: CYP inhibition in vitro; type: in vitro ADME
Chain of CYP 2C8 (P10632 whole entry): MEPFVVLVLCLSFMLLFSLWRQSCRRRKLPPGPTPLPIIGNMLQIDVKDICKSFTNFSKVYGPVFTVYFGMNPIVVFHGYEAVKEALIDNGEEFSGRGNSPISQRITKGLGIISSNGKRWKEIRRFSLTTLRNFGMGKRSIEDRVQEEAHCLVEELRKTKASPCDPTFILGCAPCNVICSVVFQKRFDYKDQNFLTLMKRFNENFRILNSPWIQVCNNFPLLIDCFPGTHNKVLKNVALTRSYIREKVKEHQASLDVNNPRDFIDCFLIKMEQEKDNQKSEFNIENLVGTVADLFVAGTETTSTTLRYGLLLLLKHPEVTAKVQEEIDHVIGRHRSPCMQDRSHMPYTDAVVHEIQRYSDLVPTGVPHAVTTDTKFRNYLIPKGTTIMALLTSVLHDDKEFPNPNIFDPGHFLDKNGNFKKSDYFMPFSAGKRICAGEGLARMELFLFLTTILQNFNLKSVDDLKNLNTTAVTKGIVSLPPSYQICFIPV

CYP 2C9 = CYP 2C9 (Homo sapiens, UniProt P11712); assay: CYP inhibition in vitro; type: in vitro ADME
Chain of CYP 2C9 (P11712 whole entry): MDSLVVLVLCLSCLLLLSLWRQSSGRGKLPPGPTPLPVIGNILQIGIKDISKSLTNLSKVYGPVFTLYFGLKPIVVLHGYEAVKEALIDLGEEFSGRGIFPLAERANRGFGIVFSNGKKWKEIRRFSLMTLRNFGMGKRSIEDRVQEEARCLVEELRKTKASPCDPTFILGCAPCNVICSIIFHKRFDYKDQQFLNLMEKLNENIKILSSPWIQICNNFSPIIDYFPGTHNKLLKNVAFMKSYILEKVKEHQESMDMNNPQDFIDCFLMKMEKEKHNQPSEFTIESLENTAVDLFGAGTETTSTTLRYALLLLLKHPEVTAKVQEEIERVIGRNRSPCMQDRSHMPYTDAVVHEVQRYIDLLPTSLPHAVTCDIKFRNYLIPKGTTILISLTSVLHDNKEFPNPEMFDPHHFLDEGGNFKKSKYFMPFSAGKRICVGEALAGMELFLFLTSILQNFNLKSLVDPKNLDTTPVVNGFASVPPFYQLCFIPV

MRC‐5 = assay: MTS cytotoxicity assay, MRC-5; type: cell-based, human; details: 72 h
Protocol: (§1) Human embryonic kidney cells (HEK‐293A), human hepatocellular carcinoma cells (HUH7), human embryonic liver diploid cells (CCC‐HEL‐1) and human embryonic lung cells (MRC‐5) were selected for the cytotoxicity study of both drugs, using the MTS assay protocol. Cells were cultured at 37°C with 5% CO2 using an appropriate medium. […] After 72 h of incubation, 30 μL of MTS solution was added to each well, and the cells were then incubated for 2–4 h in the dark. The absorbance value of each well at 490 nm was measured using an enzymatic plate reader and the IC50 for each drug and each cell line was calculated. Cell viability and cytoxicity experiments were repeated three times.

[9] = tested on: 5/6 nephrectomy (5/6 Nx) rat model; set-up: method as in PMID 35919527; details: GS-4997 alone; cited from earlier work
diabetic kidney disease = tested on: diabetic kidney disease; set-up: method as in PMID 25531162; details: cited from earlier work
NASH [10] = tested on: NASH; set-up: method as in PMID 32147362; details: cited from earlier work
L02 cells = assay: Cell protection in PA-stimulated L02 cells (Cell Titer-Glo viability); type: cell-based, human; details: 50 μmol/L PA, 72 h
Protocol: L02 cells were cultured in DMEM medium (Gibco, 11 965 092, Carlsbad, CA, USA) supplemented with 20% FBS and 1× penicillin–streptomycin. L02 cells were inoculated in two 96‐well plates at 1E4 cells/well (200 μL). The following day, the cells were stimulated with 50 μmol/L PA (dissolved in ethanol to make a 200× stock solution and then added to the medium) and simultaneously incubated with different concentrations of CS17919 and GS‐4997 (CS17919 and GS‐4997 stock solutions were added to the well plates to reach a final concentration of 10–0.3 μmol/L). After 72 h of incubation, the original medium was removed, followed by the addition of 100 μL of new DMEM medium and 60 μL of Cell Titer‐Glo reagent per well. The cells were incubated for 5 min in the dark, and then transferred to a black permeable plate for detection using an enzyme plate reader (Tecan spark, Grödig, Austria).

UUO mouse model = UUO mouse model of kidney injury and fibrosis; type: in vivo, C57BL/6J mice; details: CS17919 10 and 60 mg/kg, GS-4997 30 mg/kg, gavage twice daily, 11 days
Protocol: 55 C57BL/6J mice, male, 6–8 weeks old were purchased from Chengdu Pharmachem Biotechnology Co. (Chengdu, China) and randomly divided into 5 groups according to their body weight: Sham (n = 10), Model (n = 15), CS17919L (10 mg/kg, n = 10), CS17919H (60 mg/kg, n = 10), and GS‐4997 (30 mg/kg, n = 10). The mice were anesthetized and fixed on the operating table, and the abdominal cortex and muscles were cut in the middle of the right side of the abdomen, and the ureter was searched for along the renal hilum. The ureter was separated using a glass split‐needle and ligated at the opening of the renal pelvis and the upper 1/3 of the ureter, and the ureter was cut between the two ligatures. Finally, the muscle and skin were closed with consecutive sutures, and animals were kept under observation until they awoke. Both the Sham and the Model group received solvent (0.2% CMC‐Na + 0.1% Tween‐80) orally twice daily. CS17919 and GS‐4997 were administered by gavage twice daily at the corresponding doses for 11 days. All treatments were started one day before surgical operation. All mice were sacrificed one day after administration with overnight fasting. Blood was collected, and serum was isolated for the analysis of urea nitrogen and creatinine. The kidney of each mouse was removed, weighed and fixed in 10% formalin solution for pathological study.
Masson staining was applied to determine kidney fibrosis in the UUO model. Thin 4 μm paraffin sections of each sample were used in this study, which followed the standard procedure. The sections were stained with Hematoxylin staining solution for 5–10 min and then washed, followed by staining with Ponceau S‐acid fuchsin stain for around 5–10 min. The sections were treated with 1% phosphomolybdic acid and Aniline Blue solution, and finally dehydrated stepwise in alcohol and sealed. VIS7.0 software was used to analyze the area of kidney fibrosis and the percentage of the fibrosis area in the scanning area was calculated.

CCC‐HEL‐1 = assay: MTS cytotoxicity assay, CCC-HEL-1; type: cell-based, human; details: 72 h
Protocol: as §1

[11] = 4 weeks, CS27109 10 mg/kg twice a day
[12] = serum after 4 weeks, CS27109 10 mg/kg, gavage twice a day, mean ± SD

## O=C(Nc1cccc(-c2nncn2C2CC2)c1)c1cc(-n2cnc(C3CC3)c2)ccn1 [GS‐444217]
UUO model
  Kidney fibrosis: attenuate kidney fibrosis
DKD
  Glomerular sclerosis progression: halt the progression of glomerular sclerosis
NASH [1]
  NASH symptoms: significantly ameliorated NASH symptoms

## N#Cc1nn(-c2cc(Br)c(Oc3n[nH]c(=O)c4ccccc34)c(Br)c2)c(=O)[nH]c1=O [CS27109]
[2]
  Clint in liver microsomes: 4.24 mL/min/kg
  T1/2 in liver microsomes: >120 min
CYP 1A2
  IC50: > 10 µM
CYP 2C19
  IC50: > 10 µM
CYP3A4 [3]
  IC50: > 10 µM
CYP3A4 [4]
  IC50: > 10 µM
CYP 2D6
  IC50: > 10 µM
NASH mouse model [5]; [11]
  Liver fibrosis area (Sirius Red staining): improving all pathologic features of NASH
  Liver inflammation score (H&E): improving all pathologic features of NASH
  Liver steatosis and ballooning scores (H&E): improving all pathologic features of NASH
NASH mouse model [5]; [12]
  ALT: 68.7 ± 18.8^c U/L
  AST: 113.0 ± 36.2^a U/L
  HDL‐C: 0.665 ± 0.284 mmol/L
  LDL‐C: 0.040 ± 0.026^b mmol/L
  TC: 0.785 ± 0.277 mmol/L
  TG: 0.329 ± 0.341 mmol/L
[6]
  Clint in liver microsomes: 7.72 mL/min/kg
  T1/2 in liver microsomes: >120 min
[7]
  Clint in liver microsomes: 0.83 mL/min/kg
  T1/2 in liver microsomes: >120 min
NASH mouse model [8]
  Occurrence of hepatocellular carcinoma (mice affected/group): 2/8
CYP 2B6
  IC50: > 10 µM
CYP 2C8
  IC50: > 10 µM
CYP 2C9
  IC50: 5.1 µM

## Cc1cc(F)c(C(=O)Nc2cccc(-c3nncn3C(C)C)n2)cc1-n1cnc(C2CC2)c1 [GS‐4997, Selonsertib, reference compound]
MRC‐5
  Cytotoxicity (cell viability): reduced cell viability at higher doses; also recorded: high‐dose cytotoxicity
[9]
  CKD-related characteristics and kidney function: barely improved CKD‐related characteristics, but preserved kidney function
Diabetic kidney disease
  Outcome of DKD clinical trial: did not meet its primary endpoint
NASH [10]
  Outcome of phase III NASH trial: failed
L02 cells; 0.32–10 μmol/L drug
  Cell protection (cell viability normalized to PA-treated cells): only protected against cell death at lower doses
L02 cells; 5 and 10 μmol/L drug
  Cell viability at high drug doses: reduced cell viability in a dose‐dependent manner
UUO mouse model
  Area of kidney fibrosis (Masson staining): tendency to reduce
  Serum creatinine vs model group: non‐significant tendency to decrease
  Serum urea nitrogen vs model group: significantly reduced
CCC‐HEL‐1
  Cytotoxicity (cell viability): reduced cell viability at higher doses
